Measured values as given in article PMC9898036, “VIP152 is a selective CDK9 inhibitor with pre-clinical in vitro and in vivo efficacy in chronic lymphocytic leukemia” (Leukemia, 2022).

Experiments:
Assay type in all cases: binding
[1] = target: MRCKA (Homo sapiens, UniProt Q5VT25); experiment: KINOMEscan: MRCKA; settings: 1000 nM, read-out: Percent Control
[2] = target: FLT3-autoinhibited (Homo sapiens, UniProt P36888); experiment: KINOMEscan: FLT3-autoinhibited; settings: 1000 nM, read-out: Percent Control
[3] = target: HIPK1 (Homo sapiens, UniProt Q86Z02); experiment: KINOMEscan: HIPK1; settings: 1000 nM, read-out: Percent Control
[4] = target: FGR (Homo sapiens, UniProt P09769); experiment: KINOMEscan: FGR; settings: 1000 nM, read-out: Percent Control
[5] = target: KIT(A829P) (Homo sapiens, UniProt P10721, A829P); experiment: KINOMEscan: KIT(A829P); settings: 1000 nM, read-out: Percent Control
KIT(A829P), sequence (P10721 26-976 A829P): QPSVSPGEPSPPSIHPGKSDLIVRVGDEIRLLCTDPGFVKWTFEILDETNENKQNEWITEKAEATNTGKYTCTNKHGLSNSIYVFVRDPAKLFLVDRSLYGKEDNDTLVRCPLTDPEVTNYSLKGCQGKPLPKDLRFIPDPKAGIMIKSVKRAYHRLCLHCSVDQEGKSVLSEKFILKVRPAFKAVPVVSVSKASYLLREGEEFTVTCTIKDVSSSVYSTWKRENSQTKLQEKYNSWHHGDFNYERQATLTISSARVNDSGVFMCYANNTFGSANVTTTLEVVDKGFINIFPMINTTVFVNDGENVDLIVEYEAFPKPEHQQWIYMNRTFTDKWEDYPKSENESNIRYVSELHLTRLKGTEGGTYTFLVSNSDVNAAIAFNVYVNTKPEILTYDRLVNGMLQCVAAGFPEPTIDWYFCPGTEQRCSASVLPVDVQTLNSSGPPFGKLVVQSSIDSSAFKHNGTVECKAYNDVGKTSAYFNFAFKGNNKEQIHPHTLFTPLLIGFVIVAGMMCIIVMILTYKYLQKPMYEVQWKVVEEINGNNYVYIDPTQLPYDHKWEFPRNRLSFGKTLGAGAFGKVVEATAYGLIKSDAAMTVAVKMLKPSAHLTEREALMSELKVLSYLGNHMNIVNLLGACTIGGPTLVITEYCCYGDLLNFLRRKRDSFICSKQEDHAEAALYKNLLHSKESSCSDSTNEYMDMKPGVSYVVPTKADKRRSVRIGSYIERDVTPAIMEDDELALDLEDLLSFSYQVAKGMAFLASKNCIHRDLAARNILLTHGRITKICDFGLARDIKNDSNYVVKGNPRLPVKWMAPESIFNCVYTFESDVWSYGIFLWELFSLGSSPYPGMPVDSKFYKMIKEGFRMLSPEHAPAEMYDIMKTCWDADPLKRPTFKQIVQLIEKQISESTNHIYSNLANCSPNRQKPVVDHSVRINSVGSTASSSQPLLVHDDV

[6] = target: PKNB(M.tuberculosis) (Mycobacterium tuberculosis, UniProt P9WI81); experiment: DiscoverX KINOMEscan kinase profiling: PKNB(M.tuberculosis); settings: PKNB(M.tuberculosis) (Entrez pknB); 100 nM; read-out: Percent Control
PKNB(M.tuberculosis), sequence (P9WI81 whole entry): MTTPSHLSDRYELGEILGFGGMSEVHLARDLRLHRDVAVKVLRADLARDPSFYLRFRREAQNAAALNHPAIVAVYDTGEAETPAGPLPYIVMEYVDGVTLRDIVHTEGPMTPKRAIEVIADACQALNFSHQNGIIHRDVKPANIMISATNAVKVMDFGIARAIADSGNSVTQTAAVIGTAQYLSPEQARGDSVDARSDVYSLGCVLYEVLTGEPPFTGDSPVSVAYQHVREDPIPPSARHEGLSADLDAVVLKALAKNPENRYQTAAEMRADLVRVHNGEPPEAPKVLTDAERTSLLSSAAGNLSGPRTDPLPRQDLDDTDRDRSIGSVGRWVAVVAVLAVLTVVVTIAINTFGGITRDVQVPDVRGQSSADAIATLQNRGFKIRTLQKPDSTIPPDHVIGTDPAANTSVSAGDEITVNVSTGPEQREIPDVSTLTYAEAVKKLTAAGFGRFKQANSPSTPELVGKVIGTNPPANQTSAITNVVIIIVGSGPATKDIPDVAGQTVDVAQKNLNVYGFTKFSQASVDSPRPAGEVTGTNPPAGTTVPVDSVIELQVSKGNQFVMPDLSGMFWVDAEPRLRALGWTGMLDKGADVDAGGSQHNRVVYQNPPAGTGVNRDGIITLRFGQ

[7] = target: Interleukin IL-1 (Mus musculus, UniProt P13504); experiment: Eurofins Diversity Panel; settings: Conc. 10 μM
Interleukin IL-1, sequence (P13504 20-576): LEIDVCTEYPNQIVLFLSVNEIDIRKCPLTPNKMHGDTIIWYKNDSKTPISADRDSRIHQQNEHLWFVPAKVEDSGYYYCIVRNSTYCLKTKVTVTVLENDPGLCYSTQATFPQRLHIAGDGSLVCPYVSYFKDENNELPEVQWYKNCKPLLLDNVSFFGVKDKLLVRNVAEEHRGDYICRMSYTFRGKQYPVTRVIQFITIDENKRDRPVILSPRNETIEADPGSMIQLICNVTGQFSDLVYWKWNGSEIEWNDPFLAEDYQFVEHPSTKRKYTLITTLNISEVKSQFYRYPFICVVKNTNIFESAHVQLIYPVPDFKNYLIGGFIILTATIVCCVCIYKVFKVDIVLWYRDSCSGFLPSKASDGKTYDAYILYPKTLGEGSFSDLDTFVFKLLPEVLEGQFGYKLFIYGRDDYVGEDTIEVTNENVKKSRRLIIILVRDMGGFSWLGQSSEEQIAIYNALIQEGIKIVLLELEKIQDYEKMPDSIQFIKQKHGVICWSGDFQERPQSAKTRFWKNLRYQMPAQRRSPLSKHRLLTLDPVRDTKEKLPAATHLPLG

[8] = target: YANK2 (Homo sapiens, UniProt Q9NY57); experiment: KINOMEscan: YANK2; settings: 100 nM, read-out: Percent Control
YANK2, sequence (Q9NY57 whole entry): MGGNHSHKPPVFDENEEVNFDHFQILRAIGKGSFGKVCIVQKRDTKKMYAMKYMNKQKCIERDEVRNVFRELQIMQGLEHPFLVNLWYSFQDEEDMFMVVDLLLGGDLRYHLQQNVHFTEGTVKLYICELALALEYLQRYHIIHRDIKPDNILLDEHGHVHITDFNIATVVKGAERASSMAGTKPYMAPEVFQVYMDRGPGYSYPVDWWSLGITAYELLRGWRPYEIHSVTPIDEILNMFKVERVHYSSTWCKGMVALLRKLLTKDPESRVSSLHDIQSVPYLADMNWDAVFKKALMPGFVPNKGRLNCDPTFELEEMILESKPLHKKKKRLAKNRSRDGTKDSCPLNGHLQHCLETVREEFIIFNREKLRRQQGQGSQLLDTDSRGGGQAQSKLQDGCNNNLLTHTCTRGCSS

[9] = target: GRK7 (Homo sapiens, UniProt Q8WTQ7); experiment: KINOMEscan: GRK7; settings: 1000 nM, read-out: Percent Control
GRK7, sequence (Q8WTQ7 whole entry): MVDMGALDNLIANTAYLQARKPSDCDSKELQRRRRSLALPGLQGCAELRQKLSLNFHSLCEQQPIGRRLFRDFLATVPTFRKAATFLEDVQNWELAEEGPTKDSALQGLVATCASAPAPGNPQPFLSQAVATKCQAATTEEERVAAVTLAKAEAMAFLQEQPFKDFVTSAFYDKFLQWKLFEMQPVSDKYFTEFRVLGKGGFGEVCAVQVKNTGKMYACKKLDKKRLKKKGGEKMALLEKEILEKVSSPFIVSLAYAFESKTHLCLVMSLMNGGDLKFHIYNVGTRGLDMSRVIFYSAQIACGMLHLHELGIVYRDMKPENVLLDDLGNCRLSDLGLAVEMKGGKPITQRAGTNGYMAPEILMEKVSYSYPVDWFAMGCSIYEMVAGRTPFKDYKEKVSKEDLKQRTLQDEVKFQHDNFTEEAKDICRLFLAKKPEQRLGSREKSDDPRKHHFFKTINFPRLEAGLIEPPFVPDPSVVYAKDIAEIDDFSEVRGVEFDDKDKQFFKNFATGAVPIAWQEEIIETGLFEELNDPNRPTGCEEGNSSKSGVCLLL

[10] = target: MEK6 (Homo sapiens, UniProt P52564); experiment: KINOMEscan: MEK6; settings: 1000 nM, read-out: Percent Control
MEK6, sequence (P52564 whole entry): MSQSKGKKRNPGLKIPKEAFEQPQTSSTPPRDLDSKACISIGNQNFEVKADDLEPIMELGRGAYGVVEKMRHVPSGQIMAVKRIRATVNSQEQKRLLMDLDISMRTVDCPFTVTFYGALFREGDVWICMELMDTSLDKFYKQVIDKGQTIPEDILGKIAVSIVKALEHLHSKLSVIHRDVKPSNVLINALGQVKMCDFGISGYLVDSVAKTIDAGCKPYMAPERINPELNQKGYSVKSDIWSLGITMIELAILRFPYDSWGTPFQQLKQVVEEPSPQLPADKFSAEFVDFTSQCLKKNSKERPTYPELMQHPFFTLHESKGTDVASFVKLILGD

[11] = target: ABL2 (Homo sapiens, UniProt P42684); experiment: KINOMEscan: ABL2; settings: 1000 nM, read-out: Percent Control
ABL2, sequence (P42684 whole entry): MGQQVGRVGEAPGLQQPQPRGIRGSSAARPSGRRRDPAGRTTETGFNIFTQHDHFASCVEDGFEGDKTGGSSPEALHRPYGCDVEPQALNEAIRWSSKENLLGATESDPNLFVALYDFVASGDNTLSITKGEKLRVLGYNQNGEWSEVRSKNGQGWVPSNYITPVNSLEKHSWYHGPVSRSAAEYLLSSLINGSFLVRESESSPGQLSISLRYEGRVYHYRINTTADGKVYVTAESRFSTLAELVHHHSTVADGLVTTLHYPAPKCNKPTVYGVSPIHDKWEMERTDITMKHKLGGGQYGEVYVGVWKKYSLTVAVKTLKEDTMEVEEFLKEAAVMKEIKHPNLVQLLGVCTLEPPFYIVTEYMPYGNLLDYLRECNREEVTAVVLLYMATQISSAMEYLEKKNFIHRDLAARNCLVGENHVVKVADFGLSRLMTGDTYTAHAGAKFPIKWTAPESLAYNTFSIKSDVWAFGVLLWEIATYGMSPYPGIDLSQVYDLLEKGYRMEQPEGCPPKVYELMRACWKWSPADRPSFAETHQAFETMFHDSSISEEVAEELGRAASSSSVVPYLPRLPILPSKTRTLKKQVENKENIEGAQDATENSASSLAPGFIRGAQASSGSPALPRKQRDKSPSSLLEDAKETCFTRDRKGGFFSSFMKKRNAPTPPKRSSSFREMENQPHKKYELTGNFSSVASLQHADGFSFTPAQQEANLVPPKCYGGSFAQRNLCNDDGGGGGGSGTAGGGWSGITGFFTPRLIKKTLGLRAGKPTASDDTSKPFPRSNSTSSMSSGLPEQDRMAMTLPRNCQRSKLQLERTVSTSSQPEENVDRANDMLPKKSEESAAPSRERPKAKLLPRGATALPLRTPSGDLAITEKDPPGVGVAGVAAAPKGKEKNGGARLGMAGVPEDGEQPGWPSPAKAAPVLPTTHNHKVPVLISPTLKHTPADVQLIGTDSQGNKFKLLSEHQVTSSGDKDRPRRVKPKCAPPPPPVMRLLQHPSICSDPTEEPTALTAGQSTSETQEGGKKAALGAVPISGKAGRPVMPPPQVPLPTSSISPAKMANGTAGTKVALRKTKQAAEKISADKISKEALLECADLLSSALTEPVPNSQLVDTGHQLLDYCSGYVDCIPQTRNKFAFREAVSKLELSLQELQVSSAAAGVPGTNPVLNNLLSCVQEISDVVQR

**Q.** What does the source list for `COc1cc(F)ccc1-c1cc(Nc2cc(CS(C)(=N)=O)ccn2)ncc1F` (centres unmarked) [VIP152]?
**A.** remaining binding at 1 µM [1]: 82%; remaining binding at 1 µM [2]: 76%; remaining binding at 1 µM [3]: 54%; remaining binding at 1 µM [4]: 66%; remaining binding at 1 µM [5]: 100%; remaining binding at 0.1 µM [6]: 100%; inhibition at 10 µM [7]: -5%; remaining binding at 0.1 µM [8]: 71%; remaining binding at 1 µM [9]: 87%; remaining binding at 1 µM [10]: 94%; remaining binding at 1 µM [11]: 65%
